{"source": "patent US6655081B1", "about": "“Mushrooms” (DSM N.V., priority 1999, dated 2003)", "key": {"[1]": {"system": "mycelium of most mushroom species, e.g. A. bisporus", "settings": "cited from earlier work"}, "Trichoderma harzianum": {"system": "Trichoderma harzianum", "assay": "Mould growth on Potato Dextrose Agar plates containing natamycin", "type": "cell-based", "settings": "5 days at 25° C.", "method": "(§1) Each of these organisms were field isolates.\n(§2) Potato Dextrose Agar plates containing 0, 10 and 20 ppm of natamycin and mould suspensions were prepared using well known methods.\n(§3) The freshly prepared suspensions were dilluted to final concentrations of 10^4 Colony Forming Units/ml.\n(§4) 10 μl of each mould suspensions was inoculated in a spot on the agar plates (in duplo). The plates were incubated for 5 days at 25° C.\n(§5) After 5 days of incubation on the control plates containing no natamycin, clear colonies were formed."}, "Dactylium dendroides": {"system": "Dactylium dendroides", "assay": "Mould growth on Potato Dextrose Agar plates containing natamycin", "type": "cell-based", "settings": "5 days at 25° C.", "method": "as §1, §2, §3, §4, §5"}, "Mycogone pernicosa": {"system": "Mycogone pernicosa", "assay": "Mould growth on Potato Dextrose Agar plates containing natamycin", "type": "cell-based", "settings": "5 days at 25° C.", "method": "as §1, §2, §3, §4, §5"}, "Verticillium fungicola": {"system": "Verticillium fungicola", "assay": "Mould growth on Potato Dextrose Agar plates containing natamycin", "type": "cell-based", "settings": "5 days at 25° C.", "method": "as §1, §2, §3, §4, §5"}, "Agaricus bisporus": {"system": "Agaricus bisporus", "type": "in vivo", "settings": "after 3 flushes", "method": "This example describes the effect of natamycin on the yield of mushrooms. Tubs having an area of 0.26 m^2 were filled with commercially prepared pasteurized mushroom substrate inoculated with spawn (seed) of the commercial button mushroom Agaricus bisporus. Following colonization by the mushroom fungus, the substrate was covered by a layer of peat moss, mixed with limestone (the casing layer) and further incubated under well known standard conditions until mycelial strands were visible on the surface. Fruiting bodies were initiated by manipulating the external environment using methods well known in the industry. 9 tubs were treated five days prior to the first flush by applying an aqueous solution containing 10 ppm of natamycin, as a control 9 tubs were treated the same way however without natamycin. The aqueous solution was applied at a rate of 1.84 liter per square meter and the mushroom beds were allowed to continue growing."}, "most fungi": {"system": "most fungi", "settings": "cited from earlier work"}}, "data": [{"molecule": "C[C@@H]1C/C=C/C=C/C=C/C=C/[C@H](O[C@@H]2O[C@H](C)[C@@H](O)[C@H](N)[C@@H]2O)C[C@@H]2O[C@](O)(C[C@@H](O)C[C@H]3O[C@@H]3/C=C/C(=O)O1)C[C@H](O)[C@H]2C(=O)O", "note": "[natamycin]", "values": [{"measurement": "inhibition of mushroom mycelium", "setting": "[1]", "result": "inhibited"}, {"measurement": "growth on agar plate", "setting": "Trichoderma harzianum; 10 ppm natamycin", "result": "no growth"}, {"measurement": "growth on agar plate", "setting": "Trichoderma harzianum; 20 ppm natamycin", "result": "no growth"}, {"measurement": "growth on agar plate", "setting": "Dactylium dendroides; 10 ppm natamycin", "result": "no growth"}, {"measurement": "growth on agar plate", "setting": "Dactylium dendroides; 20 ppm natamycin", "result": "no growth"}, {"measurement": "growth on agar plate", "setting": "Mycogone pernicosa; 10 ppm natamycin", "result": "no growth"}, {"measurement": "growth on agar plate", "setting": "Mycogone pernicosa; 20 ppm natamycin", "result": "no growth"}, {"measurement": "growth on agar plate", "setting": "Verticillium fungicola; 10 ppm natamycin", "result": "only some slight growth"}, {"measurement": "growth on agar plate", "setting": "Verticillium fungicola; 20 ppm natamycin", "result": "no growth"}, {"measurement": "average yield", "setting": "Agaricus bisporus; 10 ppm natamycin aqueous solution, 1.84 liter per square meter, five days prior to first flush, 9 tubs", "result": 3.94, "unit": "pounds per square feet"}, {"measurement": "yield compared to the untreated control", "setting": "Agaricus bisporus; 10 ppm natamycin", "result": "statistically significant yield increase"}, {"measurement": "MIC (Minimal Inhibitory Concentration)", "setting": "most fungi", "result": "less than 20 ppm"}]}]}
